Reference: US20150266850A1 (E.I.DU PONT DE NEMOURS AND COMPANY, priority 2012, published 2015)
Marks after values point to notes of the source that are not given here.

Tests used:
Assay type in all cases: in vivo
Settings in all cases: 100 = 100% disease control
[1] = tested on: Erysiphe graminis f. sp. tritici; assay: Test A: wheat powdery mildew, preventive spray on wheat seedlings, visual disease rating
Source text: (§1) General protocol for preparing test suspensions for Tests A-E: the test compounds were first dissolved in acetone in an amount equal to 11% of the final volume and then suspended at the desired concentration (in ppm) in acetone and purified water (50/50 mix by volume) containing 250 ppm of the surfactant Trem® 014 (polyhydric alcohol esters). The resulting test suspensions were then used in Tests A-E. Spraying a 200 ppm test suspension to the point of run-off on the test plants was the equivalent of a rate of 800 g/ha.
The test suspension was sprayed to the point of run-off on wheat seedlings. The following day the seedlings were inoculated with a spore dust of Erysiphe graminis f. sp. tritici, (the causal agent of wheat powdery mildew) and incubated in a growth chamber at 20° C. for 8 days, after which time disease ratings were visually made.
(§2) Results for Tests A-E are given in Table A. In the Table, a rating of 100 indicates 100% disease control and a rating of 0 indicates no disease control (relative to the controls). A dash (-) indicates no test results. All results are for 200 ppm except where followed by an “*”, which indicates 40 ppm or “**”, which indicates 50 ppm.

[2] = tested on: Puccinia recondita f sp. tritici; assay: Test B: wheat leaf rust, preventive spray on wheat seedlings, visual disease rating
Source text: as §1
The test suspension was sprayed to the point of run-off on wheat seedlings. The following day the seedlings were inoculated with a spore suspension of Puccinia recondita f sp. tritici (the causal agent of wheat leaf rust) and incubated in a saturated atmosphere at 20° C. for 24 h, and then moved to a growth chamber at 20° C. for 7 days, after which time disease ratings were visually made.
as §2

[3] = tested on: Septoria tritici; assay: Test C: wheat leaf blotch, preventive spray on wheat seedlings, visual disease rating
Source text: as §1
(§3) The test suspension was sprayed to the point of run-off on wheat seedlings. The following day the seedlings were inoculated with a spore suspension of Septoria tritici (the causal agent of wheat leaf blotch) and incubated in a saturated atmosphere at 24° C. for 48 h, and then moved to a growth chamber at 20° C. for 19 days, after which time disease ratings were visually made.
as §2

[4] = tested on: Septoria nodorum; assay: Test D: wheat glume blotch, preventive spray on wheat seedlings, visual disease rating
Source text: as §1
as §3, with “nodorum” for “tritici”, “glume” for “leaf”, “20°” for “24°”, “7” for “19”
as §2

[5] = tested on: Botrytis cinerea; assay: Test E: tomato botrytis, preventive spray on tomato seedlings, visual disease rating
Source text: as §1
The test suspension was sprayed to the point of run-off on tomato seedlings. The following day the seedlings were inoculated with a spore suspension of Botrytis cinerea (the causal agent of tomato botrytis) and incubated in saturated atmosphere at 20° C. for 48 h, and then moved to a growth chamber at 27° C. for 3 additional days, after which time disease ratings were visually made.
as §2

Structure (SMILES) | Test A disease control rating ([1]; 40 ppm (*)) | Test B disease control rating ([2]; 40 ppm (*)) | Test C disease control rating ([3]; 40 ppm (*)) | Test D disease control rating ([4]; 40 ppm (*)) | Test E disease control rating ([5]; 40 ppm (*)) | Test A disease control rating ([1]; 200 ppm) [%] | Test B disease control rating ([2]; 200 ppm) [%] | Test C disease control rating ([3]; 200 ppm) [%] | Test D disease control rating ([4]; 200 ppm) [%] | Test E disease control rating ([5]; 200 ppm) [%]
COC(=O)NCc1cc(-n2ccc(-c3ccc(Cl)nc3C)n2)ccc1C [Cmpd 44] | 98* % | 100* % | 92* % | 100* % | 0* % |  |  |  |  | 
COC(=O)NCc1cc(-n2ccc(-c3ccc(Cl)nc3OC)n2)ccc1C [Cmpd 45] | 98* % | 100* % | 95* % | 100* % | 39* % |  |  |  |  | 
COC(=O)NCc1cc(-c2ccn(-c3ccc(Br)cc3[N+](=O)[O-])n2)ccc1C [Cmpd 48] | 0* % | 100* % | 100* % | 100* % | 37* % |  |  |  |  | 
COC(=O)NCc1cc(-c2ccn(-c3ccc(Cl)cc3[N+](=O)[O-])n2)ccc1C [Cmpd 49] | 26* % | 100* % | 95* % | 100* % | 8* % |  |  |  |  | 
COC(=O)NCc1cc(-n2ncc(-c3ccc(Cl)cc3F)n2)ccc1C [Cmpd 50] | 100* % | 100* % | 99* % | 100* % | 77* % |  |  |  |  | 
C#CCOc1cc(OC)ccc1-c1ccn(-c2ccc(C)c(CNC(=O)OC)c2)n1 [Cmpd 51] |  |  |  |  |  | 0 | 100 | 88 | 100 | 0
COC(=O)NCc1cc(-c2ccn(-c3ccc(Cl)cc3C#N)n2)ccc1C [Cmpd 52] | 97* % | 100* % | 88* % | 100* % | 0* % |  |  |  |  | 
COC(=O)NCc1cc(-n2ccc(-c3ccc(OC)cc3OCC#N)n2)ccc1C [Cmpd 53] |  |  |  |  |  | 100 | 100 | 97 | 100 | 0
COC(=O)NCc1cc(-n2ccc(-c3ccc(Br)cc3Cl)n2)ccc1C [Cmpd 55] | 100* % | 100* % | 91* % | 100* % | 38* % |  |  |  |  | 
COC(=O)NCc1cc(-n2ccc(-c3ccc(Br)cc3F)n2)ccc1C [Cmpd 56] | 100* % | 100* % | 98* % | 100* % | 56* % |  |  |  |  | 
COC(=O)NCc1cc(-n2ccc(-c3ccc(F)cc3Br)n2)ccc1C [Cmpd 57] | 100* % | 100* % | 99* % | 100* % | 63* % |  |  |  |  | 
COC(=O)NCc1cc(-n2ccc(-c3ccc(Br)cc3OC)n2)ccc1C [Cmpd 58] | 100* % | 100* % | 96* % | 100* % | 26* % |  |  |  |  | 
COC(=O)NCc1cc(-n2ccc(-c3ccc(OC)cc3Br)n2)ccc1C [Cmpd 59] | 99* % | 100* % | 97* % | 100* % | 52* % |  |  |  |  | 
COC(=O)NCc1cc(-c2ccn(-c3ccc(F)cc3Cl)n2)ccc1C [Cmpd 60] | 100* % | 100* % | 91* % | 100* % | 99* % |  |  |  |  | 
COC(=O)NCc1cc(-c2ccn(-c3ccc(Br)cc3Cl)n2)ccc1C [Cmpd 61] | 100* % | 100* % | 94* % | 100* % | 91* % |  |  |  |  | 
